Measured values published in patent US20100022514A1, “Heterocycle Compounds and Methods of Use Thereof” (NORVARTIS AG, priority 2006, published 2010).
Where two headings read alike, the source gives them in different places.

How the values were obtained:
[1] = tested on: p21 promoter (p21-luc) in H1299 cells; assay: p21 promoter luciferase assay using stably transfected p21-luc in H1299 cells; assay type: cell-based; details: Homo sapiens, NCI-H1299
Experimental: The cell lines used are derived from H1299 (p21-luc). The growth media used is RPMI 1640, 10% FBS, 1% Pen/Strep and the selection media added is 500 μg/mL Geneticin (Gibco). The buffer used is 5× cell culture lysis buffer (Promega #E1531), stored at −20 C and the Luciferase assay reagent (Promega #E1483) is stored at −70° C. The results of the assay are analyzed using Wallac Software.
To assay Luciferase, the cell culture medium is removed after one day of growth and the flasks are washed once with PBS. The cells are trypsinized in 20 mL of media and the trypsin is neutralized. The cells are counted (0.5-1 mL) on a Vi-Cell XR cell viability analyzer.
Cells are then diluted to a concentration of approximately 5000 cells/200 μL, and 190 μL samples are aliquoted into each well of a Costar white 96-well TC treated white bottom plate with lid (Costar #3917). Plates are then incubated overnight at 37 C.
After a further day, a sample of the compound is added to the wells for assay.
After a further day, the cells are lysed and the luciferase activity of the lysed cells is measured. Each well is washed twice with PBS and 20 μL/well of 1× cell culture lysis buffer (dilute 5× to 1× in distilled water) is added to each well. The microtiter plates are then shaken on a microtiter plate shaker for 20 minutes at room temperate at a speed setting of 5-6. After removal from the shaker, 100 μL of Luciferase Reagent is added to each well. Each microtiter plate is then read on Wallac Envision instrument.

HDAC-1 = molecular target: T1, HDAC-1 (Homo sapiens, UniProt Q13547); assay: Deacetylase fluorescence assay (HDAC-1); assay type: biochemical
T1 construct: made in house
T1 sequence (Q13547 whole entry): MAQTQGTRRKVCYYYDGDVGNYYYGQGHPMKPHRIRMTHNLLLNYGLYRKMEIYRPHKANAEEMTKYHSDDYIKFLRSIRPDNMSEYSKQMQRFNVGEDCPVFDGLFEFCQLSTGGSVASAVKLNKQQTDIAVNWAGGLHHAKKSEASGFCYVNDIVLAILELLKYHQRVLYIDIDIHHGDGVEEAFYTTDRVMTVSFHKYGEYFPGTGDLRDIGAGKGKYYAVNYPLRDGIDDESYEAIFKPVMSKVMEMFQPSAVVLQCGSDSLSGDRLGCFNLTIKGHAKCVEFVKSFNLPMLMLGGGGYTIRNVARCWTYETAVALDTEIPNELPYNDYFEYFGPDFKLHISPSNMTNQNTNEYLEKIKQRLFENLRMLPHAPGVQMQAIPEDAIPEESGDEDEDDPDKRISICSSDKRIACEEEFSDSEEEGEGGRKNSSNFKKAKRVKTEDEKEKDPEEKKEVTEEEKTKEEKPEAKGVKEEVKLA
Experimental: Conventional methods are used to express deacetylase enzymes and purify them from lysed cells. The following example describes an exemplary procedure, however equivalent procedures are within the scope of the invention.
The cell line used is a derivative of 293 cells overexpressing a fusion of the gene encoding each deacetylase protein with a nucleotide sequence encoding the Flag marker.
Cells are grown in Optimem, 2% Fetal Calf Serum, Pen/Strep. For enzyme preparation, Lysis buffer (IPLS) is 50 mM Tris-HCl, pH 7.5, 120 mM NaCl, 0.5 mM EDTA and 0.5% Nonidet P-40, to which is added one tablet of Protease inhibitors (Roche 11836170001) per 10 ml buffer. Other buffers are IPHS, which is IPLS containing 1 M NaCl; TBS (Sigma #T5912) dilute 10× stock to 1× with dH2O; HD buffer: 10 mM Tris pH 8.0 (1M Stock) 10 mM NaCl (5M Stock), 10% glycerol, and for dialysis: 400 μM PMSF is added (for 2 L: use 8 ml 100 mM Stock). Protease inhibitors (Complete mini, Boehringer Mannheim), 1 tablet/10 mL are added to all buffers but not used in buffers for enzyme assays.
Cells are harvested without using trypsin, and most cells are obtained easily in PBS, with gentle striking or agitation of flasks if necessary. More adherent cells are scraped in PBS. Cells are grown in 500 cm^2 trays, from which about half of the media is aspirated (50 ml total), then cells are scraped in the rest of the media and transferred to a centrifuge tube. Trays are washed with 25 ml cold PBS, scraped again to collect additional cells, and centrifuged at 1500 rpm at 4° C. for 5 min. Cells are washed at least 3 times in PBS to remove growth media, pelleting cells after each wash by centrifugation at 1500 rpm for 5 minutes. After washing, PBS is removed and the resulting cell pellet frozen at −80° C. for storage prior to purification.
For purification, cells are resuspended in lysis buffer, 12 ml of IPLS for cells collected from 10 500 cm trays. Cells are lysed at 4° C. for 3 hrs with rocking, and debris is removed by centrifugation for 20 min at 17,000 rpm in 30 ml centrifuge tubes. If supernatant is not clear afterward, centrifugation of the supernatant is repeated. Protein concentration of the whole cell lysate is determined (generally in the range of about 2-5 mg/ml).
For immunoprecipitation per mg of protein, 15 μL of anti-Flag M2-Agarose Affinity beads (Sigma #A2220) is used. Beads are prepared by washing 3 times with 10× bead volume of PBS and 1 time with IPLS, with centrifugation of the washes at 1500 rpm for 5 min. Whole cell lysate is incubated with the Ab-beads overnight at 4° C. Then beads are centrifuged and washed in 5× volume of the following buffers: three times in IPLS (30 sec at 4° C., spin at 1500 RPM for 5 min); three times in IPHS; and three times in TBS buffer. After each centrifugation, the supernatant is aspirated, leaving the pellet as dry as possible but avoiding sucking up any of the beads.
To elute the enzyme, beads are resuspended in 5× bead volume of TBS with protease inhibitor (Roche 11836170001) 1 tablet/10 mL. Enzyme is eluted with 400 μg/mL Flag peptide (Sigma #F-3290) for 3 hrs at 4° C. on rotator. Then beads are centrifuged, and the supernatant is transferred to a new tube to which is added 1/10 volume of glycerol. The supernatant is transferred to a dialysis cassette (Pierce #66410) using a 3 cc syringe and 18 G needle, and is dialyze sup in 2 L HD buffer for 2 hrs at 4° C. (1 L/hour). The resulting purified deacetylase is divided into aliquots (300 μL/tube), is snap frozen in dry ice bath, and is stored at −80° C.
For assay of deacetylase an assay based on Deacetylase Fluorescent Activity Assay/Drug Discovery Kit (BioMol # AK500) is used, however any equivalent deacetylase assay is within the scope of the invention.
The Fluorescent Assay Buffer (FAB) contains: 25 mM Tris-HCl, pH 8.0, 137 mM NaCl, 2.7 mM KCl and 1 mM MgCl2. […]

IC50 (HDAC-1; read-out: HDAC-1 IC50) [nM] | SMILES | AC50 [1] [nM] | IC50 (HDAC-1) [nM]
< 100 | Cc1[nH]c2ccccc2c1CC(=O)N1Cc2ccc(/C=C/C(=O)NO)cc2C1 [Example 25, (E)-N-Hydroxy-3-{2-[2-(2-methyl-1H-indol-3-yl)-acetyl]-2,3-dihydro-1H-isoindol-5-yl}-acrylamide] | > 1000 | 
100 to 1000 | O=C(/C=C/c1ccc2c(c1)CN(C(=O)Cc1ccccc1)C2)NO [Example 26, (E)-N-Hydroxy-3-(2-phenylacetyl-2,3-dihydro-1H-isoindol-5-yl)-acrylamide] | > 1000 | 
 | O=C(/C=C/c1ccc2c(c1)CN(CCc1c[nH]c3ccccc13)C2)NO [Example 27, (E)-N-Hydroxy-3-{2-[2-(1H-indol-3-yl)-ethyl]-2,3-dihydro-1H-isoindol-5-yl}-acrylamide] | > 1000 | < 100
< 100 | O=C(/C=C/c1ccc2c(c1)CN(CCc1cnn3ccccc13)C2)NO [Example 28, (E)-N-Hydroxy-3-[2-(2-pyrazolo[1,5-a]pyridin-3-yl-ethyl)-2,3-dihydro-1H-isoindol-5-yl]-acrylamide] | > 1000 | 
 | Cc1[nH]c2ccccc2c1CCN1Cc2ccc(/C=C/C(=O)NO)cc2C1 [Example 29, (E)-N-Hydroxy-3-{2-[2-(2-methyl-1H-indol-3-yl)-ethyl]-2,3-dihydro-1H-isoindol-5-yl}-acrylamide] | 100 to 1000 | < 100
100 to 1000 | O=C(CCc1ccc2c(c1)CN(CCC1CCCCC1)CC2)NO [Example 31] | > 1000 | 
> 1000 | Cc1nn(C)c(C)c1CN1CCc2cc(/C=C/C(=O)NO)ccc2C1 [Example 32, (E)-N-Hydroxy-3-[2-(1,3,5-trimethyl-1H-pyrazol-4-ylmethyl)-1,2,3,4-tetrahydro-isoquinolin-6-yl]-acrylamide] | > 1000 | 
< 100 | Cc1nn2ccccc2c1CCN1CCCc2cc(/C=C/C(=O)NO)ccc2C1 [Example 33, (E)-N-Hydroxy-3-{2-[2-(2-methyl-pyrazolo[1,5-a]pyridin-3-yl)-ethyl]-2,3,4,5-tetrahydro-1H-benzo[c]azepin-7-yl}-acrylamide] | > 1000 | 
100 to 1000 | Cc1noc(-c2ccccc2)c1CCN1Cc2ccc(/C=C/C(=O)NO)cc2C1 [Example 34, (E)-N-Hydroxy-3-{2-[2-(3-methyl-5-phenyl-isoxazol-4-yl)-ethyl]-2,3-dihydro-1H-isoindol-5-yl}-acrylamide] | > 1000 | 
100 to 1000 | O=C(/C=C/c1ccc2c(c1)CN(CCC1CCCCC1)C2)NO [Example 35, (E)-3-[2-(2-Cyclohexyl-ethyl)-2,3-dihydro-1H-isoindol-5-yl]-N-hydroxy-acrylamide] | > 1000 | 
< 100 | Cc1noc(-c2ccccc2)c1CCN1CCc2ccc(/C=C/C(=O)NO)cc2C1 [Example 38, (E)-N-Hydroxy-3-{2-[2-(3-methyl-5-phenyl-isoxazol-4-yl)-ethyl]-1,2,3,4-tetrahydro-isoquinolin-7-yl}-acrylamide] | > 1000 | 
< 100 | Cc1nn2ccccc2c1CCN1CCc2ccc(/C=C/C(=O)NO)cc2C1 [Example 40, (E)-N-Hydroxy-3-{2-[2-(2-methyl-pyrazolo[1,5-a]pyridin-3-yl)-ethyl]-1,2,3,4-tetrahydro-isoquinolin-7-yl}-acrylamide] | > 1000 | 
< 100 | Cc1[nH]c2ccccc2c1CCN1CCCc2cc(/C=C/C(=O)NO)ccc2C1 [Example 41, (E)-N-Hydroxy-3-{2-[2-(2-methyl-1H-indol-3-yl)-ethyl]-2,3,4,5-tetrahydro-1H-benzo[c]azepin-7-yl}-acrylamide] | > 1000 | 
< 100 | CC(C)(C)c1[nH]c2ccccc2c1CCN1CCc2ccc(/C=C/C(=O)NO)cc2C1 [Example 42, (E)-3-{2-[2-(2-tert-Butyl-1H-indol-3-yl)-ethyl]-1,2,3,4-tetrahydro-isoquinolin-7-yl}-N-hydroxy-acrylamide] | 100 to 1000 | 
< 100 | CC(C)(C)c1[nH]c2ncccc2c1CCN1CCc2ccc(/C=C/C(=O)NO)cc2C1 [Example 43, (E)-3-{2-[2-(2-tert-Butyl-1H-pyrrolo[2,3-b]pyridin-3-yl)-ethyl]-1,2,3,4-tetrahydro-isoquinolin-7-yl}-N-hydroxy-acrylamide] | > 1000 | 
100 to 1000 | O=C(/C=C/c1ccc2c(c1)CN(CCc1ccccc1)CC2)NO [Example 44, (E)-N-Hydroxy-3-(2-phenethyl-1,2,3,4-tetrahydro-isoquinolin-7-yl)-acrylamide] | > 1000 | 
100 to 1000 | O=C(/C=C/c1ccc2c(c1)CN(CCC1CCCCC1)CC2)NO [Example 45, (E)-3-[2-(2-Cyclohexyl-ethyl)-1,2,3,4-tetrahydro-isoquinolin-7-yl]-N-hydroxy-acrylamide] | > 1000 | 
100 to 1000 | Cn1cc(CCN2CCc3ccc(/C=C/C(=O)NO)cc3C2)c(-c2ccccc2)n1 [Example 46, (E)-N-Hydroxy-3-{2-[2-(1-methyl-3-phenyl-1H-pyrazol-4-yl)-ethyl]-1,2,3,4-tetrahydro-isoquinolin-7-yl}-acrylamide] | > 1000 | 
100 to 1000 | O=C(/C=C/c1ccc2c(c1)CN(CCc1c[nH]nc1-c1ccccc1)CC2)NO [Example 47, (E)-N-Hydroxy-3-{2-[2-(3-phenyl-1H-pyrazol-4-yl)-ethyl]-1,2,3,4-tetrahydro-isoquinolin-7-yl}-acrylamide] | > 1000 | 

SMILES | IC50 (HDAC-1; read-out: HDAC-1 IC50) [nM] | AC50 [1] [nM] | IC50 (HDAC-1) [nM]
O=C(/C=C/c1ccc2c(c1)CN(CCc1c[nH]c3ccccc13)CC2)NO [Example 36, (E)-N-Hydroxy-3-{2-[2-(1H-indol-3-yl)-ethyl]-1,2,3,4-tetrahydro-isoquinolin-7-yl}-acrylamide] | 100 to 1000 | > 1000 | 
Cc1[nH]c2ccccc2c1CCN1CCc2ccc(CCC(=O)NO)cc2C1 [Example 37, N-Hydroxy-3-{2-[2-(2-methyl-1H-indol-3-yl)-ethyl]-1,2,3,4-tetrahydro-isoquinolin-7-yl}-propionamide] | > 1000 | > 1000 | 
Cc1[nH]c2ccccc2c1CCN1CCc2ccc(/C=C/C(=O)NO)cc2C1 [Example 39, (E)-N-Hydroxy-3-{2-[2-(2-methyl-1H-indol-3-yl)-ethyl]-1,2,3,4-tetrahydro-isoquinolin-7-yl}-acrylamide] | < 100 | 100 to 1000 | 
